Test results: ChEMBL document CHEMBL3879907, “8-azabicyclo[3.2.1]octane compounds as mu opioid receptor antagonists” (2014)

Columns and labels:
[1] = biological target: Kappa-type opioid receptor (Cavia porcellus, UniProt P41144); test: Displacement of [3H]-diprenorphine from guinea pig kappa opioid receptor expressed in CHOK1 cell membranes; conditions: cho-k1
[2] = biological target: Mu-type opioid receptor (Homo sapiens) (UniProt P35372); test: Intrinsic activity at human mu opioid receptor expressed in CHOK1 cell membranes at 0.00001 to 20 uM after 30 mins by GTP-Eu nucleotide exchange assay relative to DAMGO; assay type: functional; conditions: CHO-K1
Mu-type opioid receptor (Homo sapiens), sequence (P35372 whole entry): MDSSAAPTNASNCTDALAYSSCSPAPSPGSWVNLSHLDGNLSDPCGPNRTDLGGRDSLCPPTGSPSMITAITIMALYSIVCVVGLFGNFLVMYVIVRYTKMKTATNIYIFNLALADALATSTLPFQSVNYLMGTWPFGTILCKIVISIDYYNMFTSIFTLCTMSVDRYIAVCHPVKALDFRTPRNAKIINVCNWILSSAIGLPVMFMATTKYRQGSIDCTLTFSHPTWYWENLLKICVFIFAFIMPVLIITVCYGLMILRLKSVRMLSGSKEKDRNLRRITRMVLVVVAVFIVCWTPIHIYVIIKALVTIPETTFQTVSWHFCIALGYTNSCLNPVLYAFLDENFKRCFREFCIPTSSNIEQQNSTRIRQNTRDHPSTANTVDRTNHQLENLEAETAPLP

[3] = biological target: Delta-type opioid receptor (Homo sapiens, UniProt P41143); test: Displacement of [3H]-diprenorphine from human delta opioid receptor expressed in cell membranes
Delta-type opioid receptor, sequence (P41143 whole entry): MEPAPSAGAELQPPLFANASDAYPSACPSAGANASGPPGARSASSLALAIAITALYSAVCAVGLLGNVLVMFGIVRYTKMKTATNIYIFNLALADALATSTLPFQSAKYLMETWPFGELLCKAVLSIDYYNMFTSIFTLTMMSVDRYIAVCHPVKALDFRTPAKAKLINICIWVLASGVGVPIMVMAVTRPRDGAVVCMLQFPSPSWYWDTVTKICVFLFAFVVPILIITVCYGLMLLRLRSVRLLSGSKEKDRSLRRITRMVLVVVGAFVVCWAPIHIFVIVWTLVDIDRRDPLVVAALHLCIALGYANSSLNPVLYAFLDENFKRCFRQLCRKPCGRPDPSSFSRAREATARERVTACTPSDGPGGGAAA

Kappa-type opioid receptor, sequence (P41144 whole entry): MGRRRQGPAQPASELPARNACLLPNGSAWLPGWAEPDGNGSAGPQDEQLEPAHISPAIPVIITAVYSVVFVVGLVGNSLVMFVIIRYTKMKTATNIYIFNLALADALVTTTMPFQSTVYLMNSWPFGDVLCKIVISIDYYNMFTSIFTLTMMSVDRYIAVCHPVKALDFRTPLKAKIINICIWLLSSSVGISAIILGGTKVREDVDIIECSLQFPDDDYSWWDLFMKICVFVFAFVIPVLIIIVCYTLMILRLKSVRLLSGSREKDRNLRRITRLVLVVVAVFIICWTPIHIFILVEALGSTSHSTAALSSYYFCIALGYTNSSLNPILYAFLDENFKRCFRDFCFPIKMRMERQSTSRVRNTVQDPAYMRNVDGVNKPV

| SMILES | pKi [1] | Intrinsic activity [2] [%] | pKi [3] |
| --- | --- | --- | --- |
| CC(CO)(CO)C(=O)N(CCN1[C@@H]2CC[C@H]1C[C@@H](c1cccc(C(N)=O)c1)C2)CC1CCCCC1 | 7 to 10.5 | < 40 | 7 to 10.5 |
| CC(C)(C)OCC(=O)N(CCN1[C@@H]2CC[C@H]1C[C@@H](c1cccc(C(N)=O)c1)C2)Cc1c(F)cccc1F.O=C(O)C(F)(F)F | 7 to 10.5 | < 40 | 7 to 10.5 |
| CC(C)(CO)C(=O)N(CCN1[C@@H]2CC[C@H]1C[C@@H](c1cccc(C(N)=O)c1)C2)CC1CCCC1.O=C(O)C(F)(F)F | 7 to 10.5 | < 40 | 7 to 10.5 |
| NC(=O)c1cccc([C@H]2C[C@H]3CC[C@@H](C2)N3CCCN(CC2CCCCC2)C(=O)CO)c1 | 7 to 10.5 | < 40 | 7 to 10.5 |
| CC(C)NC(=O)N(CCN1[C@@H]2CC[C@H]1C[C@@H](c1cccc(C(N)=O)c1)C2)CC1CCCCC1 | 7 to 10.5 | < 40 | 7 to 10.5 |
| NC(=O)c1cccc([C@H]2C[C@H]3CC[C@@H](C2)N3CCN(Cc2ccc(C(F)(F)F)cc2)C(=O)CO)c1.O=C(O)C(F)(F)F | 7 to 10.5 | < 40 | 7 to 10.5 |
| NC(=O)c1cccc([C@H]2C[C@H]3CC[C@@H](C2)N3CCN(CC2CCCC2)C(=O)CCO)c1.O=C(O)C(F)(F)F | 7 to 10.5 | < 40 | 7 to 10.5 |
| CS(=O)(=O)CC(=O)N(CCN1[C@@H]2CC[C@H]1C[C@@H](c1cccc(O)c1)C2)CC1CCCCC1 | 7 to 10.5 | < 40 | 7 to 10.5 |
| CC(C)(CO)C(=O)N(CCN1[C@@H]2CC[C@H]1C[C@@H](c1cccc(C(N)=O)c1)C2)CC1CCCCC1 | 7 to 10.5 | < 40 | 7 to 10.5 |
| O=C(O)CC1(CC(=O)N(CCN2[C@@H]3CC[C@H]2C[C@@H](c2cccc(O)c2)C3)CC2CCCCC2)CCCCC1 | 7 to 10.5 | < 40 | 7 to 10.5 |
| CCC(C)NC(=O)N(CCN1[C@@H]2CC[C@H]1C[C@@H](c1cccc(C(N)=O)c1)C2)CC1CCCCC1 (some centres not stated) | – | < 40 | – |
| CS(=O)(=O)N(CCN1[C@@H]2CC[C@H]1C[C@@H](c1cccc(C(N)=O)c1)C2)Cc1ccccc1.O=C(O)C(F)(F)F | 7 to 10.5 | < 40 | 7 to 10.5 |
| NC(=O)c1cccc([C@H]2C[C@H]3CC[C@@H](C2)N3CCN(CC2CCC2)C(=O)[C@H](O)CO)c1.O=C(O)C(F)(F)F | 7 to 10.5 | < 40 | 7 to 10.5 |
| O=C(CO)N(CCN1[C@@H]2CC[C@H]1C[C@@H](c1cccc(O)c1)C2)Cc1ccc(Cl)cc1 | – | < 40 | – |
| CS(=O)(=O)CC(=O)N(CCN1[C@@H]2CC[C@H]1C[C@@H](c1cccc(C(N)=O)c1)C2)CC1CCCC1.O=C(O)C(F)(F)F | 7 to 10.5 | < 40 | 7 to 10.5 |
| O=C(N(CCN1[C@@H]2CC[C@H]1C[C@@H](c1cccc(O)c1)C2)CC1CCCCC1)C1(O)CC1 | – | < 40 | – |
| CC(=O)N(CCCN1[C@@H]2CC[C@H]1C[C@@H](c1cccc(C(N)=O)c1)C2)CC1CCCCC1 | 7 to 10.5 | < 40 | 7 to 10.5 |
| NC(=O)c1cccc([C@H]2C[C@H]3CC[C@@H](C2)N3CCN(CC23CC4CC(CC(C4)C2)C3)C(=O)CCC(=O)O)c1 | – | < 40 | – |
| NC(=O)c1cccc([C@H]2C[C@H]3CC[C@@H](C2)N3CCN(CC23CC4CC(CC(O)(C4)C2)C3)C(=O)CO)c1 | – | < 40 | – |
| CC(C)CC(=O)N(CCN1[C@@H]2CC[C@H]1C[C@@H](c1cccc(O)c1)C2)Cc1c(F)cccc1F | 7 to 10.5 | < 40 | 7 to 10.5 |
| C[C@H](O)C(=O)N(CCN1[C@@H]2CC[C@H]1C[C@@H](c1cccc(C(N)=O)c1)C2)CC1CCC(F)(F)CC1.O=C(O)C(F)(F)F | 7 to 10.5 | < 40 | 7 to 10.5 |

| SMILES | pKi [1] | Intrinsic activity [2] [%] | pKi [3] |
| --- | --- | --- | --- |
| CC(C)(C)NCC[C@H](O)C(=O)N(CCN1[C@@H]2CC[C@H]1C[C@@H](c1cccc(C(N)=O)c1)C2)CC1CCCCC1 | – | < 40 | – |
| C[C@H](CN1[C@@H]2CC[C@H]1C[C@@H](c1cccc(O)c1)C2)N(Cc1ccccc1)C(=O)Cc1ccccc1 | 7 to 10.5 | < 40 | 7 to 10.5 |
| CCC(=O)N(CCN1[C@@H]2CC[C@H]1C[C@@H](c1cccc(O)c1)C2)CC1CCCCC1 | 7 to 10.5 | < 40 | 7 to 10.5 |
| CC(C)(C)C(=O)N(CCCN1[C@@H]2CC[C@H]1C[C@@H](c1cccc(C(N)=O)c1)C2)Cc1ccccc1 | – | < 40 | – |
| NC(=O)c1cccc([C@H]2C[C@H]3CC[C@@H](C2)N3CCN(Cc2cccc(F)c2)C(=O)CO)c1.O=C(O)C(F)(F)F | 7 to 10.5 | < 40 | 7 to 10.5 |
| O=C(O)C(O)CC(=O)N(CCN1[C@@H]2CC[C@H]1C[C@@H](c1cccc(O)c1)C2)Cc1cccc(F)c1 (some centres not stated) | – | < 40 | – |
| NC(=O)c1cccc([C@H]2C[C@H]3CC[C@@H](C2)N3CCN(CCCC2CCCCC2)C(=O)CO)c1 | 7 to 10.5 | < 40 | 7 to 10.5 |
| CC(=O)N(Cc1ccccc1)[C@H](C)CN1[C@@H]2CC[C@H]1C[C@@H](c1cccc(O)c1)C2 | 7 to 10.5 | < 40 | 7 to 10.5 |
| C[C@H](CN1[C@@H]2CC[C@H]1C[C@@H](c1cccc(O)c1)C2)N(Cc1ccccc1)C(=O)CCC1CCCC1 | 7 to 10.5 | < 40 | 7 to 10.5 |
| CN(C)CC(O)C(=O)N(CCN1[C@@H]2CC[C@H]1C[C@@H](c1cccc(C(N)=O)c1)C2)CC1CCCCC1 (some centres not stated) | – | < 40 | – |
| CC(=O)N(CCN1[C@@H]2CC[C@H]1C[C@@H](c1cccc(C(N)=O)c1)C2)CC12CC3CC(CC(C3)C1)C2 | – | < 40 | – |
| NC(=O)c1cccc([C@H]2C[C@H]3CC[C@@H](C2)N3CCN(C[C@H]2CC[C@H](O)CC2)C(=O)[C@@H](O)CO)c1 | – | < 40 | – |
| NC(=O)c1cccc([C@H]2C[C@H]3CC[C@@H](C2)N3CCN(CC2CCC(C(F)(F)F)CC2)C(=O)[C@@H](O)CO)c1 (some centres not stated) | – | < 40 | – |
| NC(=O)c1cccc([C@H]2C[C@H]3CC[C@@H](C2)N3CCN(CC2CCC(F)(F)CC2)C(=O)[C@@H](O)CO)c1 | – | < 40 | – |
| NC(=O)c1cccc([C@H]2C[C@H]3CC[C@@H](C2)N3CCN(CC2CCC(F)CC2)C(=O)[C@@H](O)CO)c1 (some centres not stated) | – | < 40 | – |
| O=C(O)C1CCCCC1C(=O)N(CCN1[C@@H]2CC[C@H]1C[C@@H](c1cccc(O)c1)C2)CC1CCCCC1 (some centres not stated) | – | < 40 | – |
| NC(=O)c1cccc([C@H]2C[C@H]3CC[C@@H](C2)N3CCN(CC2CCC(F)CC2)C(=O)CO)c1 (some centres not stated) | – | < 40 | – |
| O=C(C(O)CCc1ccccc1)N(CCN1[C@@H]2CC[C@H]1C[C@@H](c1cccc(O)c1)C2)CC1CCCCC1 (some centres not stated) | – | < 40 | – |
| O=C(CO)N(CCN1[C@@H]2CC[C@H]1C[C@@H](c1cccc(O)c1)C2)Cc1ccccc1 | 7 to 10.5 | – | 7 to 10.5 |
| CC(O)C(O)C(=O)N(CCCN1[C@@H]2CC[C@H]1C[C@@H](c1cccc(C(N)=O)c1)C2)Cc1ccccc1 (some centres not stated) | – | < 40 | – |
| O=C(O)c1cccc([C@H]2C[C@H]3CC[C@@H](C2)N3CCN(CC2CCCCC2)C(=O)[C@@H](O)CO)c1 | – | < 40 | – |

| SMILES | pKi [1] | Intrinsic activity [2] [%] | pKi [3] |
| --- | --- | --- | --- |
| NC(=O)c1cccc([C@H]2C[C@H]3CC[C@@H](C2)N3CCN(C[C@H]2CC[C@@H](O)CC2)C(=O)[C@@H](O)CO)c1 | – | < 40 | – |
| NC(=O)c1cccc([C@H]2C[C@H]3CC[C@@H](C2)N3CCN(Cc2ccccc2)C(=O)[C@H](O)CO)c1 | – | < 40 | – |
| CN(C)S(=O)(=O)N(CCN1[C@@H]2CC[C@H]1C[C@@H](c1cccc(C(N)=O)c1)C2)Cc1ccc(CF)cc1 | – | < 40 | – |
| CS(=O)(=O)CC(=O)N(CCc1ccccc1)CCN1[C@@H]2CC[C@H]1C[C@@H](c1cccc(C(N)=O)c1)C2.O=C(O)C(F)(F)F | 7 to 10.5 | – | 7 to 10.5 |
| CC1CCC(CN(CCN2[C@@H]3CC[C@H]2C[C@@H](c2cccc(C(N)=O)c2)C3)C(=O)CS(C)(=O)=O)CC1 (some centres not stated) | – | < 40 | – |
| NC(=O)c1cccc([C@H]2C[C@H]3CC[C@@H](C2)N3CCN(CC23CC4CC(CC(O)(C4)C2)C3)C(=O)[C@@H](O)CO)c1 | – | < 40 | – |
| O=C(CCC1CCCC1)N(CCN1[C@@H]2CC[C@H]1C[C@@H](c1cccc(O)c1)C2)CC1CCCCC1 | – | < 40 | – |
| C[C@H](O)C(=O)N(CCCN1[C@@H]2CC[C@H]1C[C@@H](c1cccc(C(N)=O)c1)C2)Cc1ccccc1 | – | < 40 | – |
| NC(=O)c1cccc([C@H]2C[C@H]3CC[C@@H](C2)N3CCN(CC23CC4CC(CC(C4)C2)C3)C(=O)CO)c1 | – | < 40 | – |
| NC(=O)c1cccc([C@H]2C[C@H]3CC[C@@H](C2)N3CCN(CC2CCC(C(F)(F)F)CC2)C(=O)CO)c1 (some centres not stated) | – | < 40 | – |
| O=C(CO)N(CCN1[C@@H]2CC[C@H]1C[C@@H](c1cccc(O)c1)C2)CC12CC3CC(CC(C3)C1)C2 | – | < 40 | – |
| CC(O)C(=O)N(CCN1[C@@H]2CC[C@H]1C[C@@H](c1cccc(C(N)=O)c1)C2)Cc1ccccc1 (some centres not stated) | – | < 40 | – |
| C[C@@H](O)[C@H](O)C(=O)N(CCN1[C@@H]2CC[C@H]1C[C@@H](c1cccc(C(N)=O)c1)C2)Cc1ccccc1 | – | < 40 | – |
| O=C(O)CCC(=O)N(CCN1[C@@H]2CC[C@H]1C[C@@H](c1cccc(O)c1)C2)CC12CC3CC(CC(C3)C1)C2 | – | < 40 | – |
| COC(=O)CCC(=O)N(CCN1[C@@H]2CC[C@H]1C[C@@H](c1cccc(O)c1)C2)Cc1ccccc1 | – | < 40 | – |
| CC(=O)N(CCN1[C@@H]2CC[C@H]1C[C@@H](c1cccc(O)c1)C2)CC12CC3CC(CC(C3)C1)C2 | – | < 40 | – |
| CS(=O)(=O)CC(=O)N(CCN1[C@@H]2CC[C@H]1C[C@@H](c1cccc(C(N)=O)c1)C2)CC1CCC(C(F)(F)F)CC1 (some centres not stated) | – | < 40 | – |
| CCC(C)NC(=O)N(CCN1[C@@H]2CC[C@H]1C[C@@H](c1cccc(O)c1)C2)CC1CCCCC1 (some centres not stated) | – | < 40 | – |
| CC1CCC(CN(CCN2[C@@H]3CC[C@H]2C[C@@H](c2cccc(C(N)=O)c2)C3)C(=O)[C@@H](O)CO)CC1 (some centres not stated) | – | < 40 | – |
